# Experimental data published in patent publication US20260347330A1, “N-METHYL-D-ASPARTATE RECEPTOR (NMDAR) ANTAGONISTS AND USES THEREOF” (Bexson Biomedical, Inc., priority 2022, published 2026).
# Columns and labels:
# NMDAR = test: NMDA receptor [3H]-MK-801 competition radioligand binding in rat forebrain; conditions: for NMDAR binding affinity pKi (mean ± SEM): [3H]-MK-801 1 nM competition, 1 mM glutamate, 0.1 mM glycine, pH 7.4, 2 h ambient, N = 1-4; for % inhibition of specific [3H]-MK-801 binding: at 10,000 nM
# Experimental: Rat forebrains from 7-8 week old Sprague-Dawley rats (BioChemed, USA) were homogenized in a buffer containing 10 mM HEPES and 1 mM EDTA (pH 7.4) using a mechanical homogenizer (Janke-Kunkel Ultra-Turrax T25). A 10 mL volume was used per brain for all steps involving suspension of the brain homogenate tissue. The brain homogenate was then centrifuged (15 minutes at 20,000 RPM and 4 ° C). The supernatant was carefully poured off and the pellet was resuspended in fresh 10 mM HEPES and 1 mM EDTA containing buffer. This process was repeated 5 times. Following the 5th centrifugation, the buffer was replaced with a buffer containing 10 mM HEPES (pH 7.4). The homogenate was then incubated in a water bath at 37 ° C in the dark (covered with foil). Centrifugation was then repeated 3 additional times and after resuspending in the HEPES buffer, the final homogenate was aliquoted and stored at −80 ° C until use. Protein concentration of the homogenate was determined by utilizing the Bradford method using Coomassie protein assay reagent (Sigma, USA) with Bovine Serum albumin (Sigma, USA) as a standard.
# At the time of the experiment, the homogenate was diluted to a final concentration of […] in 10 mM HEPES buffer, 1 mM glutamate, and 0.1 mM glycine (pH 7.4) and combined with 1 nM (+)-[3H]-MK-801 (Perkin Elmer NET972250UC), unlabeled competitor compounds at varying concentrations, or 30 uM MK-801 to determine non-specific binding, in a total volume of 1 mL in a 96 well plate. The protein homogenate is always added to the wells last. The plates were covered with aluminum foil, and placed on a mechanical shaker (250 RPM) for 2 h at ambient temperature ([…]). After 2 h, the homogenate was collected by vacuum filtration using a Unifilter-96 Cell Harvester (Perkin Elmer) over presoaked UniFilter-96 GF/C P Microplates (Perkin Elmer) and filters were washed with room temperature 10 mM HEPES buffer (pH 7.4) (3×1 mL). The filter plates were dried overnight in a fume hood. The next day, the bound tritium was measured via liquid scintillation counting with […] MicroScint-O (Perkin Elmer) added per well, using a MicroBeta2 Plate Reader with 6-detectors scintillation counter (Perkin Elmer) at 55% efficiency. IC50 value estimates were determined in GraphPad Prism 9.3.1 using non-linear regression (single site fit) with log-concentration plotted against percent specific binding. Ki values were calculated using the equation of Cheng and Prusoff. […] Experiments were performed in duplicate. N=1-4 per compound.
# hSERT = molecular target: T1, hSERT (Homo sapiens, UniProt P31645); test: SERT [3H]-citalopram competition radioligand binding, hSERT expressing HEK293 cell membranes
# T1 construct: no vendor name is printed for this cell line) RBHSTM-K; host or cells: HEK293
# Experimental: Valiscreen Serotonin Transporter (SERT) (Human) Cell Line (HEK293 host cells, Product No: RBHSTM-K) grown in DMEM/F12 media with 10% FBS, 0.1 mg/ml Geneticin, 1% GlutaMAX, and 1% Penicillin-Streptomycin added were used to prepare SERT membrane fractions. Cells were grown in 150 mm dishes and harvested between 70-90% confluency, passages 5-20. Cells were detached using a buffer containing 1 mM HEPES and 2 mM EDTA (pH 7.4). After detachment, the cells were homogenized using a handheld homogenizer, and the lysate was centrifuged (30 minutes at 30,000×G) at 4 ° C The resulting pellet was resuspended in storage buffer containing 20 mM HEPES, 10 mM MgCl2, 0.1 mM EDTA, and 10% sucrose at pH 7.4. Protein concentration was determined via the Bradford method using Coomassie protein assay reagent (Sigma, USA) with Bovine Serum albumin (Sigma, USA) as standard.
# Buffer containing 10 mM HEPES, 120 mM NaCl, and 5 mM KCl (pH 7.4) was added to SERT membranes to dilute to a final protein concentration of 5 µg/mL per well. Additionally, 0.5 nM [3H]-Citalopram (Perkin Elmer NET1039250UC) was added, along with unlabeled competitors at various concentrations or […] citalopram for nonspecific binding controls, bringing the total volume to 1 ml in a 96 well plate. SERT membranes were always added last to each well. The plates were covered from light with aluminum foil and incubated at ambient temperature ([…]) and placed on a mechanical shaker (250RPM) for 2 h. After 2 h, SERT protein was captured via vacuum filtration using a Unifilter-96 Cell Harvester (Perkin Elmer) over presoaked UniFilter-96 GF/C P Microplates (Perkin Elmer) and filters were washed with room temperature 10 mM HEPES, 120 mM NaCl, and 5 mM KCl buffer (pH 7.4) (3×1 mL). The filter plates were dried overnight in a fume hood. The next day, the SERT bound tritium was measured via liquid scintillation counting with MicroScint-O (Perkin Elmer), using a MicroBeta2 Plate Reader with 6-detectors scintillation counter (Perkin Elmer) at 55% efficiency. IC50 value estimates were determined in GraphPad Prism 9.3.1 using non-linear regression (single site fit) with log-concentration plotted against percent specific binding. […] For each experiments compounds were run in duplicate. N=1-3 repeats per compound.
# [1] = molecular target: T2, human Dopamine Transporter (Homo sapiens, UniProt Q01959); test: Human dopamine reuptake transporter (DAT) inhibition functional study, ASP+ uptake in CHO cells; type: cell-based; conditions: at 10,000 nM, 10 μM ASP+, 1 h, CHO cells stably expressing human DAT
# T2 construct: host or cells: CHO
# Experimental: CHO cells stably expressing human Dopamine Transporter Protein (Valiscreen® Perkin Elmer RBHDATM-K) were cultured in 150 mm Tissue Culture dishes (Cell Treat 229651) at 37 ° C and 5% CO2. Ham's F-12 Nutrient Mix (Gibco, USA) was supplemented with 10% dialyzed FBS (Gibco, USA), 100 µg/ml Geneticin (Gibco, USA), and 100 units/ml Penicillin and Streptomycin (Gibco, USA) as the culture media. Cells were maintained on a consistent splitting and assay schedule and utilized until passage 30 (no change in control experiments were observed up to this point).
# Cells were detached from their growth dishes using Trypsin-EDTA (0.25%) (Gibco, USA) at 70-80% confluency. The cells were counted and diluted in culture media to a density of 300,000 cells/mL. 200 µl of this mixture was added to each well of a clear bottom, black-walled 96 well plate (Coming 3603, USA). Plates were incubated in the laminar flow hood for one hour prior to being placed in the cell culture incubator in order to encourage even cell distribution across the entire well surface.
# The next day, Krebs-Ringer HEPES (KRH) Buffer pH 7.4 was prepared (10 mM HEPES, 130 mM NaCl, 1.3 mM KCl, 2.2 mM CaCl2, 1.2 mM MgSO4, 1.2 mM KH2PO4) and titrated with 6N NaOH. This buffer was stored in a 4 ° C refrigerator for up to 4 days (after which it was discarded). Additionally, a solution containing KRH buffer and 330 µM Trypan Blue (Sigma T6146-25G), a solution of 20 mM ASP+(MedChem Express, NJ, USA) dissolved in DMSO, were both prepared. The 20 mM DMSO stock of ASP+ was diluted to a working concentration of 40 µM in KRH buffer. DMSO solutions of 40 mM GBR-12935 dihydrochloride (MedChem Express, NJ, USA) and 40 mM test compounds were also prepared. DMSO solutions of test compounds were then diluted to a range of […]-40 μM in KRH Buffer with 1% additional DMSO added to provide consistent DMSO concentration in all samples. […] The final DMSO concentration in each well was 0.3%. […] KRH buffer with DMSO “vehicle control” served as the total fluorescence control to represent the maximum amount of substrate uptake without DAT transporter inhibition.
# At the time of assay, cell media was carefully removed from the wells via pipette aspiration. 100 μL of KRH buffer was then added to all wells. Both controls, non-specific and total fluorescence stock solutions were then added to the plate (50 µL of either 400 µM GBR-12935 or KRH DMSO buffer respectively). Additionally, GBR-12935 and test compounds were added to the plate ([…] for each sample). The 10,000 nM concentration of test compound was run in triplicate wells. Next, […] ASP+(final concentration of 10 μM) was added to each well initiating the experiment. Cells were placed in the cell culture incubator for one hour, at which point 20 µL of 330 µM Trypan Blue was added to each well to quench extracellular fluorescence. The cells were then placed in the microplate reader (BioTek Synergy Neo 2), using Gen5 Ver 3.11 software. The reader was preheated to 37 ° C and following a brief orbital shake, intracellular fluorescence was measured using a fluorescence intensity reading. Intracellular ASP+ was excited at 430 nm and emission read at 510 nm via a bottom read using the extended gain settings and high lamp energy setting.
# T2 sequence (Q01959 whole entry): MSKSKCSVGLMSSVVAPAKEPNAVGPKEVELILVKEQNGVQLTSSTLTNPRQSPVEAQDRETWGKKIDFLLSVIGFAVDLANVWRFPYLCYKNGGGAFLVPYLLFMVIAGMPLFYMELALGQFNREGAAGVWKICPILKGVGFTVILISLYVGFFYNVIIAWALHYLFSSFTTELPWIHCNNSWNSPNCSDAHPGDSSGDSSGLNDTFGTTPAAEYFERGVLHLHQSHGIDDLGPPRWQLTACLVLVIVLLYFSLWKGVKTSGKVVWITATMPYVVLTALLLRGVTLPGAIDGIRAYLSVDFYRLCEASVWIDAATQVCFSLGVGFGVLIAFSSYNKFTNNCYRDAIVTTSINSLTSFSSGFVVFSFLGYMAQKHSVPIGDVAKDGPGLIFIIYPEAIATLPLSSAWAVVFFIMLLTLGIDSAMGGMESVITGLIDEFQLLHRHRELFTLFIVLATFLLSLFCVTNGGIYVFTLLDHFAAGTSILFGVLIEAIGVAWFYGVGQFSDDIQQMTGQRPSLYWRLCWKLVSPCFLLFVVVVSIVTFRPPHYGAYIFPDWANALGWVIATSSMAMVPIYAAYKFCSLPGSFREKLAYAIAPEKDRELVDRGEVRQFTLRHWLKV
# T1 sequence (P31645 whole entry): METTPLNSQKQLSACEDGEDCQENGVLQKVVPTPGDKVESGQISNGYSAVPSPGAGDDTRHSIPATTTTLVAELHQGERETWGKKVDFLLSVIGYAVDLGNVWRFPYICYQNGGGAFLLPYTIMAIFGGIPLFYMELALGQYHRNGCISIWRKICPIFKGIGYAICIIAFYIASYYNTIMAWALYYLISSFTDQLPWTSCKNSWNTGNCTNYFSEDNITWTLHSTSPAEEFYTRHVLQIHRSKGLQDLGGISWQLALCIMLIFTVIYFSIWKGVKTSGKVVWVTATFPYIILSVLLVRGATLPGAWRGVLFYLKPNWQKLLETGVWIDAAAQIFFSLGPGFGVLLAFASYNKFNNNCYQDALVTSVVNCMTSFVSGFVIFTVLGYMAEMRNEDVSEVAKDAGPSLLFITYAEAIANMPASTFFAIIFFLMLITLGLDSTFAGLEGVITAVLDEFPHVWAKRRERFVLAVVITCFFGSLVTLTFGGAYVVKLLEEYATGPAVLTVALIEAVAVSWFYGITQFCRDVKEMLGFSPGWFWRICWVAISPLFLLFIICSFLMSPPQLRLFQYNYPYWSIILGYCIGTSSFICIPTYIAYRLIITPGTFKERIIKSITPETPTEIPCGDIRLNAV
smiles,measurement,setting,value
"CC(N)(c1ccccc1)C1CC1 (stereo not shown) [Compound 2, 1-cyclopropyl-1-phenylethan-1-amine]",NMDAR binding affinity pKi (mean ± SEM),NMDAR,6.19 ± 0.162
same,IC50,hSERT,> 10 µM
"CC(N)(c1ccccc1)C1CCCC1 (stereo not shown) [Compound 3, 1-cyclopentyl-1-phenylethan-1-amine]",inhibition at 10 µM,[1],16.8%
same,NMDAR binding affinity pKi (mean ± SEM),NMDAR,7.11 ± 0.041
same,IC50,hSERT,> 10 µM
"CCC(N)(c1ccccc1)C1CCCC1 (stereo not shown) [Compound 4, 1-cyclopentyl-1-phenylpropan-1-amine]",inhibition at 10 µM,[1],24.3%
same,NMDAR binding affinity pKi (mean ± SEM),NMDAR,6.64 ± 0.101
same,IC50,hSERT,> 10 µM
"NC(c1ccccc1)(C1CCCC1)C1CCC1 (stereo not shown) [Compound 7, Cyclobutyl(cyclopentyl)(phenyl)methanamine]",inhibition at 10 µM,[1],24.1%
same,NMDAR binding affinity pKi (mean ± SEM),NMDAR,5.63 ± 0.029
"C=CCCC(N)(c1ccccc1)C1CCCC1 (stereo not shown) [Compound 8, 1-cyclopentyl-1-phenylpent-4-en-1-amine]",inhibition at 10 µM,[1],3.1%
same,NMDAR binding affinity pKi (mean ± SEM),NMDAR,6.24 ± 0.444
"C=CC(N)(c1ccccc1)C1CCCC1 (stereo not shown) [Compound 10, 1-cyclopentyl-1-phenylprop-2-en-1-amine]",NMDAR binding affinity pKi (mean ± SEM),NMDAR,6.05
"COc1cccc(C(C)(N)C2CCCC2)c1 (stereo not shown) [Compound 13, 1-cyclopentyl-1-(3-methoxyphenyl)ethan-1-amine]",NMDAR binding affinity pKi (mean ± SEM),NMDAR,6.82 ± 0.039
"CCCC(N)(c1ccccc1)C1CCCC1 (stereo not shown) [Compound 14, 1-cyclopentyl-1-phenylbutan-1-amine]",NMDAR binding affinity pKi (mean ± SEM),NMDAR,5.94 ± 0.166
"CC(NC1CCC1)(c1ccccc1)C1CCCC1 (stereo not shown) [Compound 21, N-(1-cyclopentyl-1-phenylethyl)cyclobutanamine]",inhibition at 10 µM,[1],87.3%
same,NMDAR binding affinity pKi (mean ± SEM),NMDAR,8.06 ± 0.021
"CC(c1ccccc1)(C1CCCC1)N1CCCCC1 (stereo not shown) [Compound 22, 1-(1-cyclopentyl-1-phenylethyl)piperidine]",NMDAR binding affinity pKi (mean ± SEM),NMDAR,6.08 ± .0633
same,Ki,"hSERT; 0.5 nM [3H]-citalopram competition, hSERT HEK293 membranes, pH 7.4, 2 h ambient, N = 1, read-out: SERT pKi (converted)",0.479 µM
"CC(C)C(C)(N)c1ccccc1 (stereo not shown) [Compound 25, 3-methyl-2-phenylbutan-2-amine]",inhibition at 10 µM,[1],37.6%
same,NMDAR binding affinity pKi (mean ± SEM),NMDAR,5.86 ± 0.044
"NC(c1ccccc1)C1CCCC1 (stereo not shown) [Compound 27, Cyclopentyl(phenyl)methanamine]",NMDAR binding affinity pKi (mean ± SEM),NMDAR,< 5.00
same,% inhibition of specific [3H]-MK-801 binding,NMDAR,32.4%
"NC(c1ccccc1)C1CCCCC1 (stereo not shown) [Compound 28, Cyclohexyl(phenyl)methanamine]",inhibition at 10 µM,[1],17.9%
same,NMDAR binding affinity pKi (mean ± SEM),NMDAR,4.97 ± 0.054
"C=CCC(N)c1ccccc1 (stereo not shown) [Compound 30, 1-phenylbut-3-en-1-amine]",NMDAR binding affinity pKi (mean ± SEM),NMDAR,< 5.00
same,% inhibition of specific [3H]-MK-801 binding,NMDAR,43.9%
"CCCNC(c1ccccc1)C1CCCCC1 (stereo not shown) [Compound 31, N-(cyclohexyl(phenyl)methyl)propan-1-amine]",NMDAR binding affinity pKi (mean ± SEM),NMDAR,5.76
"CCNC(c1ccccc1)C1CCCC1 (stereo not shown) [Compound 32, N-(cyclopentyl(phenyl)methyl)ethanamine]",NMDAR binding affinity pKi (mean ± SEM),NMDAR,5.85
"CC(N)(c1ccccc1)C1CCC1 (stereo not shown) [Compound 47, 1-cyclobutyl-1-phenylethan-1-amine]",NMDAR binding affinity pKi (mean ± SEM),NMDAR,6.75 ± 0.016
"CC(N)(c1ccc(F)cc1)C1CCCC1 (stereo not shown) [Compound 48, 1-cyclopentyl-1-(4-fluorophenyl)ethan-1-amine]",NMDAR binding affinity pKi (mean ± SEM),NMDAR,6.96 ± 0.019
"COc1ccc(C(C)(N)C2CCCC2)cc1 (stereo not shown) [Compound 49, 1-cyclopentyl-1-(4-methoxyphenyl)ethan-1-amine]",NMDAR binding affinity pKi (mean ± SEM),NMDAR,6.49 ± 0.0039
"CC(N)(c1cccc(C(F)(F)F)c1)C1CCCC1 (stereo not shown) [Compound 50, 1-cyclopentyl-1-(3-(trifluoromethyl)phenyl)ethan-1-amine]",NMDAR binding affinity pKi (mean ± SEM),NMDAR,5.86 ± 0.11
"CC(N)(c1cc2ccccc2s1)C1CCCC1 (stereo not shown) [Compound 51, 1-(benzo[b]thiophen-2-yl)-1-cyclopentylethan-1-amine]",NMDAR binding affinity pKi (mean ± SEM),NMDAR,< 5.00
same,% inhibition of specific [3H]-MK-801 binding,NMDAR,34.6%
"C#CC(N)(c1ccccc1)C1CCCC1 (stereo not shown) [Compound 53, 1-cyclopentyl-1-phenylprop-2-yn-1-amine]",NMDAR binding affinity pKi (mean ± SEM),NMDAR,< 5.00
same,% inhibition of specific [3H]-MK-801 binding,NMDAR,45.0%
